Data on one compound can be found in paper PMC12257073 (Cancer Research Communications, 2025).

The subject of one data set is p-H2AX. The data set is described as follows: p-H2AX in peripheral blood by spectral flow cytometry. It is filed as in vivo, human. The settings on record: cycle 1, CR (n = 2), CRh/CRi/MLFS (n = 8), SD, treatment failure or early death (n = 7). How it is done:
In brief, Ficoll-enriched peripheral blood mononuclear cells were stained for external markers, fixed, permeabilized, and then stained for p-H2AX (Thermo Fisher Scientific; AB_2896984). Sample analysis was performed in the Ohio State University Comprehensive Cancer Center Flow Cytometry Shared Resource and Immune Monitoring & Discovery Platform using the Cytek Aurora. Data were analyzed using FCS Express version 7 (De Novo Software).
Based on the observation that TP-0903 upregulates p-H2AX, a marker of DNA damage, in TP53-mutated cell lines ([24]), we hypothesized that p-H2AX could serve as a clinical biomarker for TP-0903 activity. Analysis of peripheral blood from days 1 and 10 of cycle 1 was performed by spectral flow cytometry. The mean fluorescence intensity was measured for p-H2AX, and then values at day 10 were normalized using baseline values collected on day 1 (Supplementary Fig. S4).

Data set [1] is described as follows: Treatment duration and reasons off treatment.

On to `CN1CCN(Cc2ccc(Nc3ncc(Cl)c(Nc4ccccc4S(=O)(=O)N(C)C)n3)cc2)CC1.O=C(O)C(O)C(O)C(=O)O.O=C(O)C(O)C(O)C(=O)O` [TP-0903, 2-(5-chloro-2-(4-((4-methylpiperazin-1-yl)methyl)phenylamino)pyrimidin-4-yl)amino-N,N-dimethylbenzene-1-sulfonamide di-tartrate salt], for which the “Change in p-H2AX mean fluorescence intensity, day 10 normalized to day 1” value with p-H2AX is “no significant change”. Also, the “Treatment discontinuation: AEs” value in data set [1] (group 1, 37 mg TP-0903 + decitabine) was 13%; in data set [1] (group 2, 25 mg TP-0903 + decitabine), 17%. Moreover, the “Off treatment for reason: Adverse event” value in data set [1] (group 1, 37 mg, N = 15) was 2 (13.3) n (%); in data set [1] (group 2, 25 mg, N = 12), 2 (16.7) n (%); in data set [1] (overall, N = 27), 4 (14.8) n (%).
